BindingDB's records for doi:10.1021/jm100394y (Amgen, 2010)

Test: Inhibition of aurora B in human HeLa cells assessed as increase of >= 4N DNA level after 24 hrs by Hoechst staining

CNc1nccc(-c2cccnc2Oc2ccc(NC(=O)c3ccccc3Nc3ccc(F)cc3)cc2)n1 [2-(4-Fluorophenylamino)-N-(4-(3-(2-(methylamino)pyrimidin-4-yl)pyridin-2-yloxy)phenyl)benzamide]
EC50: 28 nM

CNc1nccc(-c2cccnc2Oc2ccc(NC(=O)c3cccc(Cl)c3)cc2C)n1 [3-Chloro-N-(3-methyl-4-(3-(2-(methylamino)pyrimidin-4-yl)-pyridin-2-yloxy)phenyl)benzamide]
EC50: > 1200 nM

CNc1nccc(-c2cccnc2Oc2ccc(Nc3nnc(-c4ccc(F)cc4)c4ccccc34)cc2)n1 [4-(4-Fluorophenyl)-N-(4-(3-(2-(methylamino)pyrimidin-4-yl)-pyridin-2-yloxy)phenyl)phthalazin-1-amine]
EC50: 24 nM

CNc1nccc(-c2cccnc2Oc2ccc(NC(=O)c3ccc(Cl)cc3)cc2C)n1 [4-Chloro-N-(3-methyl-4-(3-(2-(methylamino)pyrimidin-4-yl)-pyridin-2-yloxy)phenyl)benzamide]
EC50: > 1200 nM

CNc1nccc(-c2cccnc2Oc2ccc(NC(=O)c3cc(F)ccc3Nc3ccccc3)cc2)n1 [5-Fluoro-N-(4-(3-(2-(methylamino)pyrimidin-4-yl)pyridin-2-yloxy)phenyl)-2-(phenylamino)benzamide]
EC50: 20 nM

CNc1nccc(-c2cccnc2Oc2ccc(NC(=O)c3ccccc3Nc3ccccc3)c(C)c2)n1 [N-(2-Methyl-4-(3-(2-(methylamino)pyrimidin-4-yl)pyridin-2-yloxy)phenyl)-2-(phenylamino)benzamide]
EC50: 1450 nM

CNc1nccc(-c2cccnc2Oc2ccc(NC(=O)c3ccccc3Nc3ccccc3)cc2C)n1 [N-(3-Methyl-4-(3-(2-(methylamino)pyrimidin-4-yl)pyridin-2-yloxy)phenyl)-2-(phenylamino)benzamide]
EC50: 89 nM

CNc1nccc(-c2cccnc2Oc2ccc(NC(=O)c3ccccc3Oc3ccccc3)cc2C)n1 [N-(3-Methyl-4-(3-(2-(methylamino)pyrimidin-4-yl)pyridin-2-yloxy)phenyl)-2-phenoxybenzamide]
EC50: > 1200 nM

CNc1nccc(-c2cccnc2Oc2ccc(NC(=O)c3cccc(C(F)(F)F)c3)cc2C)n1 [N-(3-Methyl-4-(3-(2-(methylamino)pyrimidin-4-yl)pyridin-2-yloxy)phenyl)-3-(trifluoromethyl)benzamide]
EC50: > 1200 nM

CNc1nccc(-c2cccnc2Oc2ccc(NC(=O)c3cccc(Oc4ccccc4)c3)cc2C)n1 [N-(3-Methyl-4-(3-(2-(methylamino)pyrimidin-4-yl)pyridin-2-yloxy)phenyl)-3-phenoxybenzamide]
EC50: > 1200 nM

CNc1nccc(-c2cccnc2Oc2ccc(NC(=O)c3ccccc3Nc3ccccc3)cc2)n1 [N-(4-(3-(2-(Methylamino)pyrimidin-4-yl)pyridin-2-yloxy)phenyl)-2-(phenylamino)benzamide]
EC50: 15 nM

CNc1nccc(-c2cccnc2Oc2ccc(Nc3nnc(-c4ccccc4)c4ccccc34)cc2)n1 [N-(4-(3-(2-(Methylamino)pyrimidin-4-yl)pyridin-2-yloxy)phenyl)-4-phenylphthalazin-1-amine]
EC50: 15 nM
